Values quoted from earlier work in patent US6495121B2, “Chewing gum containing dipetide sweetener with lengthened and improved flavor” (Holland Sweetner Company V.O.F., priority 1996, dated 2002).
Where a SMILES comes first, the peptide text is derived from it.

Settings: relative to sucrose

Structure (SMILES) | sweetening power
COC(=O)[C@H](Cc1ccccc1)NC(=O)[C@@H](N)CC(=O)O [Aspartame, α-L-aspartyl-L-phenylalaninemethylester] (H-Asp-Phe-OMe) | approximately 200 × that of sucrose
C[C@@H](NC(=O)[C@@H](N)CC(=O)O)C(=O)NC1C(C)(C)SC1(C)C.O [Alitame, L-α-aspartyl-n-(2,2,4,4-tetramethyl-3-thietanyl)-D-alanineamidehydrate] | approximately 2000 × that of sucrose
